Assay results reported in patent US12441768B2, “Compositions and methods for treating endometriosis” (EndoMet Biosciences, Inc., priority 2018, dated 2025).
Substitutions are numbered along the chain they refer to. Several values for one entry are separate records, joined by “and”; a condition that tells them apart may be missing. Identical values can stand only once. Entries after “also recorded” stand apart in the source; their conditions may differ. Where a SMILES comes first, the peptide text is derived from it.

Key:
[1] = molecular target: T1, β-catenin and E-Cadherin interaction (Homo sapiens, UniProt P35222); assay: Competitive binding assay β-catenin / E-Cadherin-FC fusion; conditions: immobilized biotinylated β-catenin, 50 nM E-Cadherin-FC fusion, varying amounts of peptide
T1 sequence (P35222 1-781): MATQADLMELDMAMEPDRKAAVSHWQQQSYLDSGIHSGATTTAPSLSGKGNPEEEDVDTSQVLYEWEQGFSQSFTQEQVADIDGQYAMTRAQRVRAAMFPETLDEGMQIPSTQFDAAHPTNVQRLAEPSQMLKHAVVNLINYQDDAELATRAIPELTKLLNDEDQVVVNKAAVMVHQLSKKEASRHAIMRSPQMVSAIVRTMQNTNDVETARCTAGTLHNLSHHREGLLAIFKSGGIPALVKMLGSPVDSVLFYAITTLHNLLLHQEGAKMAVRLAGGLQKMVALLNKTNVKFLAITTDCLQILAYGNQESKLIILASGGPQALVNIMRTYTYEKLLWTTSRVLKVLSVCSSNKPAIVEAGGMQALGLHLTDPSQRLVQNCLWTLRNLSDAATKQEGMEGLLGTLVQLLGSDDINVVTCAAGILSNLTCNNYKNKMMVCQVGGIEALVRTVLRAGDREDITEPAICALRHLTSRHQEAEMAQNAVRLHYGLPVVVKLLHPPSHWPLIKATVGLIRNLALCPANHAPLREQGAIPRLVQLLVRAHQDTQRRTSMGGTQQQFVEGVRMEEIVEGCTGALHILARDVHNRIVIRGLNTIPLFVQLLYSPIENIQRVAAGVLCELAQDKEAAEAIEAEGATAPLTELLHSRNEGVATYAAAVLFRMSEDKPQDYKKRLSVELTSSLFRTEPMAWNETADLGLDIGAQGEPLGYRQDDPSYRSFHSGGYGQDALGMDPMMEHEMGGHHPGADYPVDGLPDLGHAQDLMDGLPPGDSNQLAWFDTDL
Procedure: Competitive binding assays were performed (FIG. 3) wherein biotinylated β-catenin was immobilized on streptavidin plates and 50 nM E-Cadherin-FC fusion was added in the presence of varying amounts of the peptide inhibitors (SEQ ID NO: 42).

WNT pathway genes = assay: Human WNT Signaling Pathway RT2 Profiler PCR Array in primary cells; type: cell-based; conditions: 48 h, compared with ICG001
Procedure: On-target activity of each peptide was assessed by the transcriptional activity of WNT pathway genes using Qiagen's Human WNT Signaling Pathway RT^2 Profiler PCR Array). Primary cells were administered the therapeutic peptide corresponding to SEQ ID NO: 42 for 48 h. RNA was extracted from the harvested cells and profiled on the array using rtPCR. The array contains 84 genes related to Wnt-mediated signal transduction, including ligands, receptors, downstream signaling molecules, and regulators of the Wnt canonical pathway, two non-canonical pathways, planar cell polarity, and a calcium ion-dependent pathway, 38 of which were assessed here. Positive control of ICG001, a known Wnt inhibitor, was also run on the RNA array to be used as a comparison.

β-catenin [2] = molecular target: T2, β-catenin (Mus musculus, UniProt Q02248); assay: Immunohistochemistry of β-catenin localization in lesions, area thresholding; type: in vivo; conditions: IP daily for 3 weeks
T2 construct: from tissue; host or cells: endometriosis lesions of the mouse model
T2 sequence (Q02248 1-781): T1 sequence (P35222 1-781) with P706A
Procedure: Endometriosis was established in a mouse model of disease. Mice were allowed to establish endometriosis for 3 weeks. After the first 3 weeks, mice were then intraperitoneally treated daily for 3 weeks with the therapeutic peptides corresponding to SEQ ID NOs: 215 or 393 or untreated negative control. To assess the localization of the peptides and β-catenin, lesions from the endometriosis mouse model were assessed. On the last day of treatment, in order to visualize the peptide localization to the lesion(s), mice were dosed with a biotinylated tagged peptide therapeutic or control. Mice were euthanized, lesions were removed, and fixed in formalin for histology and immunohistochemistry. Fixed and sectioned lesions were incubated with antibodies specific for β-catenin (Cell Signaling, 1:100, Secondary: Fisher Scientific, Goat anti-Rabbit-647 1:200), streptavidin for biotinylated-therapeutic (Fisher Scientific, SA-405 1:100), and Sytox green for nucleus (Fisher Scientific, 1:300). Immunohistochemical negative controls were performed on lesion sections from all treatment groups using IgG non-specific antibodies (Rabbit-IgG, AbCam 1:100).
Quantification of β-catenin localization was performed using the Zeiss Blue Software via thresholding. Thresholding allows the software to calculate the area of staining using pixel intensity; therefore, a quantitative number for staining can be extrapolated for the different cellular compartments (See Table 6).

β-catenin [3] = molecular target: T3, β-catenin (Homo sapiens, UniProt P35222); assay: KD50 measurement using competitive fluorescence polarization (FP) with labelled TCF4; type: binding; conditions: fluorescence polarization, β-catenin; listed as 2
T3 sequence (P35222 1-781): T1 sequence (P35222 1-781)
How it was run: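 Tracer: labelled TCF4, 5 nM; protein 100 nM; RT incubation. Competitor dilution series 10 nM–30 uM. FP read ex 470 / em 520 nm. n = 3.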

EMS lesions = conditions: 5 mg/kg IP daily for three weeks, versus vehicle
Text: Lesions were established in an EMS mouse model of endometriosis by intraperitoneal injection of minced GFP+ uterine tissue from a mouse into wild-type c57/b16 mice. […] Endometrial disease was established in the mice and allowed to progress for three weeks prior to the initiation of therapy.

Compound	Inhibition of the β-catenin and E-Cadherin interaction [1]	Inhibition of gene transcripts within the Wnt pathway (WNT pathway genes)	% membrane bound β-catenin (staining area threshold), Average (β-catenin [2]; average of lesion samples) [%]	% nuclear β-catenin (staining area threshold), Average (β-catenin [2]; average of lesion samples) [%]	% nuclear β-catenin (staining area threshold) (β-catenin [2]; single lesion sample, listed as Peptide 2)	β-Cat FP Hill slope (β-catenin [3])	Activated macrophages (EMS lesions)	Relative numbers of activated macrophages, foam cells, polymorphonuclear neutrophils, B cells and T cells at the site of lesions (histology) (EMS lesions)
CC[C@H](C)[C@H](NC(=O)[C@H](CC(C)C)NC(=O)[C@H](Cc1ccccc1)NC(=O)[C@H](Cc1c[nH]c2ccccc12)NC(=O)[C@@H](N)CCSC)C(=O)N[C@@H](CS)C(=O)N[C@@H](Cc1ccccc1)C(=O)N[C@@H](Cc1c[nH]c2ccccc12)C(=O)NCC(=O)O [SEQ ID NO: 42] (H-MWFLICFWG-OH)	None of the doses tested inhibited	outperformed the known positive control; also recorded: potent and specific Wnt inhibitor						
CCCC[C@@H]1NC(=O)[C@@H](NC(C)=O)CCCCNC(=O)C[C@@H](C(=O)O)NC(=O)[C@H](Cc2c[nH]c3ccccc23)NC(=O)[C@H](C)NC(=O)[C@H](CC)NC(=O)[C@H]([C@@H](C)CC)NC(=O)[C@H](CC(C)C)NC(=O)[C@H](CC2CCCCC2)NC(=O)[C@H](Cc2c[nH]c3ccccc23)NC1=O [SEQ ID NO: 215, Cyclo-Ac-K*Nle-W-Cha-LI-Abu-AWD*-COOH] (HELM PEPTIDE1{[ac].K.[Nle].W.[Cha].L.I.[Abu].A.W.D}$PEPTIDE1,PEPTIDE1,2:R3-11:R3$$$V2.0)			46.4	1.0	0.8% and 1.2% and 1.1%	0.82	relative increase	increase in the relative numbers
